Entries after “also recorded” stand apart in the source; their conditions may differ. Where two headings read alike, the source gives them in different places.
Experiments:
platelets [1] = conditions: 4 mg/kg/day; hypercholesterolemic rat model; cited from earlier work
[2] = tested on: endothelial nitric oxide synthase (eNOS); conditions: 1 μM; human umbilical vein endothelial cells; cited from earlier work
[3] = Plasma resveratrol concentrations after intake (HPLC), one hour study; type: in vivo, human; conditions: median (interquartile range), n=30
Protocol: Participants were randomized by block design to consumed trans-res or ResArgin™ in random order. Randomization was performed by the study coordinator following a predetermined plan formulated via a web-based random number generator. […] The study included two separate investigations: a one hour study and a two hour study (FIG. 6). During each study visit, which took place after an overnight fast, a baseline measurement of PAT and a blood sample were collected, followed by consumption of the assigned treatment. During the one hour study, PAT measurements and blood samples were collected thirty and […] minutes after the capsules were consumed. During the two hour study, a PAT measurement and blood sample were taken two hours after the capsules were consumed.
Briefly, plasma was treated with acidified methanol [0.5% (v/v) of acetic acid in methanol; precooled to −20° C.] containing an appropriate recovery standard. The mixture was stored at −80 C for 12 hours to allow for cryo-assisted protein precipitation, and then centrifuged for 15 min at 16,500×g. The supernatant fraction was transferred and its volume reduced to less than 50 μL by removing the solvents under vacuum with a […] SpeedVac Concentrator (Thermo Electron Corporation, Milford, Mass.). […]

platelets [4] = conditions: in vitro; 10-1,000 μM; dose dependent; cited from earlier work
platelets [5] = conditions: 10 mg daily for three months; stable coronary artery disease patients; cited from earlier work
platelets [6] = assay: Platelet function by whole blood/optical lumi-aggregometer after intake; type: in vivo, human
Protocol: Platelet reactivity during clinical screening was assessed by a PFA-100 (Siemens, Deerfield, Ill.), which measures platelet function by simulating arterial hemostasis under blood flow shear stress. During the intervention, platelet function was assessed by a whole blood/optical lumi-aggregometer (Chrono-log Model 700, Havertown, Pa.). Briefly, platelet aggregation was measured via electrical impedence (or electrical resistance), whereas lumi-aggregometry was used to examine aggregation together with adenosine triphosphate (hereafter, “ATP”) release, which is determined with firefly luciferin-luciferase system. […] One of the following agonists was used to stimulate platelets: collagen (1 μL and 5 μL), AA (10 μL) or ADP (10 μL). ATP release was measured only when platelets were activated with ADP. The aggregation was measured over a period of six minutes, following the addition of an agonist.

postmenopausal women = assay: Microvascular function by peripheral arterial tonometry (Endo-PAT2000) after intake of 90 mg ResArgin or trans-res; type: in vivo, human; conditions: combined data
[7] = platelets stimulated with 10 μL arachidonic acid, one hour after intake

SMILES | ADP-induced platelet aggregation (platelets [1]) | Expression of eNOS [2] | Plasma resveratrol concentration ([3]; 30 minutes after intake of 90 mg) | Plasma resveratrol concentration ([3]; 60 minutes after intake of 90 mg) | Platelet aggregation (platelets [4]) | Platelet aggregation (platelets [5]) | Slope, change from baseline (platelets [6]; lumi-aggregometry with 10 μL ADP, one-hour post consumption) | Slope, change from baseline (platelets [6]; platelets stimulated with 1 μL collagen, one hour after consumption) | Lag time, change from baseline (platelets [6]; platelets stimulated with 1 μL collagen, one-hour post consumption) | Area under the curve (AUC) of aggregation, change from baseline (platelets [6]; [7]) | Maximum aggregation, change from baseline (platelets [6]; [7]) | Platelet function, change from baseline (platelets [6]; stimulation with 5 μL collagen) | Change in FRHI compared to baseline (postmenopausal women; one and two hours post-consumption) | Significant improvement in RHI compared to baseline (postmenopausal women; one hour after intake)
Oc1ccc(C=Cc2cc(O)cc(O)c2)cc1 [Resveratrol, 3,5,4′-trihydroxystilbene] | inhibited |  |  |  |  |  |  |  |  |  |  |  |  | 
Oc1ccc(/C=C/c2cc(O)cc(O)c2)cc1 [trans-res, Trans-resveratrol] |  | up-regulated | 2.04 (0.82, 2.54) | 2.65 (1.69, 3.44) | significantly reduced | significantly reduced | significant decrease | not | significant increase | no changes | no changes | no significant changes | No differences; also recorded: no changes | not observed

From patent publication US10406129B2 (priority 2015, dated 2019)
